# Entries after “also recorded” stand apart in the source; their conditions may differ. Where two headings read alike, the source gives them in different places.
# Legend:
# wt-IDH1 [1] = molecular target: T1, wt-IDH1 (Homo sapiens, UniProt O75874); settings: covalent engagement with the NADPH pocket; from the screen of Jakob et al.; read-out: cell-free EC50; cited from earlier work
# Target sequence in this assay (O75874 whole entry): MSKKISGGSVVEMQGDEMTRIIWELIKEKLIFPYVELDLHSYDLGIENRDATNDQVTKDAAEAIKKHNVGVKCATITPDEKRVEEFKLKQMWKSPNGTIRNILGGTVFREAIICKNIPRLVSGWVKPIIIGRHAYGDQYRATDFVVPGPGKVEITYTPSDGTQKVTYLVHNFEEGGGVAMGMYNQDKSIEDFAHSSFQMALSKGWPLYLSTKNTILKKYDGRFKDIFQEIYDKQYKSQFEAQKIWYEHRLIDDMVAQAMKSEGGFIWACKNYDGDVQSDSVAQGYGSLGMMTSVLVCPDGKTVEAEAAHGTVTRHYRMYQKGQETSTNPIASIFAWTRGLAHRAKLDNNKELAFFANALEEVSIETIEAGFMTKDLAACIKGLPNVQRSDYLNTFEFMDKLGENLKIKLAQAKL
# [2] = test system: patient-derived HGG cells; assay: growth and cell death in patient-derived HGG cells; assay type: cell-based
# Text: (§1) As these mt-IDH1-specific inhibitors recognize an allosteric site within the enzyme dimerization domain, many of these compounds show ‘off-target’ effect against wt-IDH1, as elucidated in cell-free enzyme repression assays.
# [3] = in vivo effects of mt-IDH1 inhibitors in HGG
# Text: as §1
# HGG glioma cells = assay: SYTOX green staining of glioma cells (plasma membrane rupture, ferroptosis); assay type: cell-based; settings: for rescue of 13i treatment effect by co-treatment: co-treatment with 13i, SYTOX green, FIG. 11A-C; for ferroptosis / plasma membrane rupture (SYTOX green positivity): compared to vehicle control, FIG. 11
# U87MG cells = assay: clonogenic growth assay, RT enhancement upon wt-IDH1 knockdown; assay type: cell-based; settings: incubation with antioxidant precursor, FIG. 5A
# Method: FIG. 5. wt-IDH1 inactivation enhances RT anti-tumor effect (A). RT enhancement ratio, as assessed via clonogenic growth assay in U87MG cells, upon genetic wt-IDH1inactivation, in the presence or absence of the ROS scavenger N-acetyl […] (NAC). (B). wt-IDH1 in doxy-treated xenogafts. (C). Tumor volume in mice subcutaneously implanted with U87MG cells carrying a doxy-inducible shIDH1 were treated with doxy and irradiated with a total of 14 Gy administered in 7 fractions of 2 Gy, and tumor volumes were measured. *p<0.05. (D.) Kaplan-Meyer estimates for tumor tripling, *p<0.005 vs. control; **p<0.001 vs. control, RT and doxy. […] Knockdown of wt-IDH1 decreased HGG cell line NADPH concentrations by 50-60%, and similarly depleted numerous NADPH-dependent metabolites, including the antioxidant glutathione (GSH). […] To determine whether combining RT and wt-IDH1 knockdown had beneficial anti-HGG effects in vivo, we established flank xenografts carrying a doxycycline (doxy)-inducible shRNA directed against wt-IDH1. A flank model was used due to the variable CNS penetrance of doxy. Immunoblotting confirmed that administration of doxy had the intended effects on wt-IDH1 expression in both inducible shIDH1 and shCo xenografts (FIG. 5B).
# recombinant wt-IDH2 = molecular target: T2, recombinant wt-IDH2 (Homo sapiens, UniProt P48735); assay: NADPH production by recombinant wt-IDH2; assay type: biochemical; settings: FIG. 6
# T2 sequence (P48735 40-452): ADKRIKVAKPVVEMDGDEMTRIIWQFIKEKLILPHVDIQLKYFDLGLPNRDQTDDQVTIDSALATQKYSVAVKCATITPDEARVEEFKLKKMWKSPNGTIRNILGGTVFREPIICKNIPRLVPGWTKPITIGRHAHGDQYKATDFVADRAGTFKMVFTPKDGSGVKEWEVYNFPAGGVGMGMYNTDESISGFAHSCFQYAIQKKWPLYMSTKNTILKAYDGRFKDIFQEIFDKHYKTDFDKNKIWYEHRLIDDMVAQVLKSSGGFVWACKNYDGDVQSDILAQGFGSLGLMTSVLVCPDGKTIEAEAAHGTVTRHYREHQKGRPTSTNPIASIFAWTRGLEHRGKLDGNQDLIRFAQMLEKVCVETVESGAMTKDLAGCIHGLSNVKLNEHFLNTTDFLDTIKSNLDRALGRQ
# Text: FIG. 6. wt-IDH1i-13 is a selective covalent wt-IDH1 inhibitor.
# (§2) The compound 13i was developed using a high-throughput screen of a proprietary library, which encompasses 750,000 compounds. During the screen, the investigators identified a hit series, centered around compound wt-IDH1i-1, which contained a large cluster of α,β-unsaturated enones^9. As indicated by the wt-IDH1: wt-IDH1i-1 crystal structure, wt-IDH1-1i bound to a fully closed wt-IDH1 enzyme and competed with NADPH for access to the wt-IDH1 active site via formation of a covalent adduct and the […] trapping of H315 located within the NAPDH binding site^9. […] Blastp searches identified wt-IDH2 as the only NADPH-dependent enzyme that contained an NADPH binding site with significant similarity to the NADPH binding pocket found in wt-IDH1. […] Of note, while H315 and D375 are conserved between wt-IDH1 and wt-IDH2, other important amino acids, including those adjacent to D375 that form a lipophilic groove (K374/L383/A378) required for 13i binding are different, and are likely to mediate compound selectivity.
# HGG PDX = assay: adult HGG PDX model treated with 13i and RT; assay type: in vivo, mice; settings: for enhancement of RT anti-tumor effect: i.p. administration, RT 2 Gy x 5
# Text: (§3) (A). Treatment schedule. (B). […]. (C). Kaplan-Meyer survival benefit analysis. (D) H&E stainings of normal brain from PDX mice treated with RT+13i. *p<0.05.
# (§4) . Toxicity to normal brain structures was not observed, as indicated by H&E stainings of tumor-adjacent normal cortex, hippocampus and cerebellum (FIG. 12E).
# [4] = H&E staining of normal brain from PDX mice treated with RT+13i; assay type: in vivo; settings: H&E of tumor-adjacent normal cortex, hippocampus and cerebellum
# Text: as §3, §4
# wt-IDH1 [5] = molecular target: T1, wt-IDH1; assay: cellular wt-IDH1 inhibition; assay type: cell-based; design: endogenous in cells
# Text: (§5) A therapeutic strategy for the pharmacological inhibition of wt-IDH1 has been devised.
# Target sequence in this assay (O75874 2-414 limits assumed): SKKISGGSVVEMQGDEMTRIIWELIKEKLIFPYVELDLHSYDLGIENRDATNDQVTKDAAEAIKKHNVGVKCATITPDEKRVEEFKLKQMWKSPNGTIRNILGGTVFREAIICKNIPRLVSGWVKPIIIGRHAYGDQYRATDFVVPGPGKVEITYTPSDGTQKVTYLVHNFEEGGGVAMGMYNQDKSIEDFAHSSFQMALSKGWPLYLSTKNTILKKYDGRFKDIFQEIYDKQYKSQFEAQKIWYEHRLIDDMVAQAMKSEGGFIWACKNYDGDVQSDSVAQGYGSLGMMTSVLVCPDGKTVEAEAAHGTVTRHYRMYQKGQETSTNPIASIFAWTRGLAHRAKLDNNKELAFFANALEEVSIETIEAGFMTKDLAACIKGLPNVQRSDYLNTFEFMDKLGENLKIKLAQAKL
# [6] = see Chung et al.; cited from earlier work
# wt-IDH1 [7] = molecular target: T1, wt-IDH1; assay: cell-free wt-IDH1 enzyme inhibition; assay type: biochemical; settings: read-out: EC50, blocks wt-IDH1
# Text: as §5, §2
# Target sequence in this assay (O75874 whole entry): as the sequence (O75874 whole entry) above
smiles,measurement,setting,value
"C[C@@H]1C(=O)C(C#N)=C[C@]2(C)c3nc(Nc4ccccc4)ncc3CC[C@@H]12 [wt-IDH1i-1, (6aS,7S,10aR)-2-anilino-7,10a-dimethyl-8-oxo-5,6,6a,7-tetrahydrobenzo[h] quinazoline-9-carbonitrile]",EC50,wt-IDH1 [1],49 nM
COc1c(C)cc(NC(=O)c2nn(Cc3ccc(F)cc3)c3c2CN(C(=O)c2ccc[nH]2)C[C@]3(C)C(N)=O)cc1C [GSK864],drug concentrations sufficient to impact growth and cell death,[2],in the high micromolar range
same,in vivo effects,[3],moderate
"CCOC(=O)c1ccc(NC2CCCCC2)c(N)c1 [ferrostatin, reference compound]",rescue of 13i treatment effect by co-treatment,HGG glioma cells,rescued 13i treatment effect
"CC(=O)N[C@@H](CS)C(=O)O [NAC, N-acetyl cysteine, reference compound]",reversal of radiosensitization conferred by wt-IDH1 knockdown,U87MG cells,nearly completely reversed
same,rescue of 13i treatment effect by co-treatment,HGG glioma cells,rescued 13i treatment effect
"C[C@@H]1C(=O)C(C#N)=C[C@]2(c3ccccc3)c3nc(Nc4ccccc4)ncc3CC[C@@H]12 [13i, (6aS,7S,10aR)-2-anilino-7-methyl-8-oxo-10a-phenyl-5,6,6a,7-tetrahydrobenzo[h] quinazoline-9-carbonitrile]",fold higher EC50 against recombinant wt-IDH2 compared to wt-IDH1,recombinant wt-IDH2,100 fold
same,tumor volume / progression (bioluminescence),"HGG PDX; i.p. 10 mg/kg M-F, in combination with RT 2 Gy x 5, 10 mg/kg",highly reduced tumor volume; also recorded: reduces the progression
same,survival,"HGG PDX; i.p. 10 mg/kg M-F, in combination with RT 2 Gy x 5, versus vehicle, 10 mg/kg",increased survival; also recorded: extends the survival
same,enhancement of RT anti-tumor effect,HGG PDX,enhancement of RT anti-tumor effect
same,enhancement of RT anti-tumor effect,HGG PDX; listed as wt-DIH1i-13,enhances RT anti-tumor effect in vivo
same,ferroptosis / plasma membrane rupture (SYTOX green positivity),HGG glioma cells,induced plasma membrane rupture; also recorded: promotes ferroptosis
same,ferroptosis / plasma membrane rupture (SYTOX green positivity),HGG glioma cells; listed as wt-DIH1i-13,promotes ferroptosis
same,toxicity to normal brain structures,[4],not observed
same,IC50,wt-IDH1 [5],800 to 1700 nM
same,brain penetrance,[6],brain-penetrant
same,EC50,wt-IDH1 [7],14 nM
